These results are taken from patent US20250171404A1, “PCNA INHIBITORS AND USES THEREOF” (CITY OF HOPE, priority 2022, published 2025).

A value given as a limit tells only on which side of the number the result lay.

Common to all, as to format: cell-based
Experiment [1] is described as follows: Cell growth IC50, screening of AOH1160 analogs (cell line not given). The conditions noted are these: read-out: IC50 values. As for the experimental part: (§1) FIG. 29. IC50 data for select compounds. The indicated cell lines were seeded at 10^4 cells per well in a 96 well plate. After allowing to attach to the plate overnight, cells were treated with various concentrations of the indicated compounds in triplicates for 72 hrs. The cell growth was measured by an SRB assay. The cell abundances under each treatment condition relative to the baseline were averaged and graphed ±S.D. The baseline is defined as the median value of the cell abundances under the treatment by the two lowest compound concentrations. The IC50 was calculated by the Prism program.

Another experiment deals with HTC-116. The experiment in a line: Cell growth IC50, screening of AOH1160 analogs. Conditions: HTC-116; read-out: IC50 values. As for the experimental part: as §1
Another experiment deals with OVCAR8. The experiment in a line: Cell growth IC50, screening of AOH1160 analogs. Conditions: Homo sapiens, OVCAR-8; OVCAR8; read-out: IC50 values. As for the experimental part:
as §1

Another experiment has as its system RKO. The experiment can be described thus: Cell growth IC50, screening of AOH1160 analogs. The conditions noted are these: Homo sapiens, read-out: IC50 values. As for the experimental part: as §1
Another experiment deals with SK-N-AS. The experiment can be described thus: Cell growth IC50, screening of AOH1160 analogs. The conditions noted are these: Homo sapiens, read-out: IC50 values. As for the experimental part: as §1
The target of experiment [2] is T1, PCNA interaction with RPB1 (Homo sapiens, UniProt P12004).
T1 construct: expressed in transfected cells; host or cells: SK-N-AS (FLAG-RPB1 exogenous; PCNA endogenous)
The experiment can be described thus: PCNA interaction with RPB1 (immunoprecipitation, western blotting). Conditions: SK-N-AS. As for the experimental part:
FIGS. 5A-5E. Modulation of PCNA interaction with RNA polymerase II. FIG. 5A: Chromatin-bound (CB) proteins were fractioned from HEK293T cells expressing FLAG-tagged PCNA after the cells were treated with or without 500 nM AOH1996. Proteins in complex with FLAG-PCNA were immune-precipitated and analyzed by mass spectrometry. Shown are numbers of proteins whose abundances were altered (grey) or unaltered (black) by more than 2-fold by AOH1996 treatment. FIG. 5B: SK-N-AS cells exogenously expressing a FLAG-tagged RPB1 gene were fractioned before and after being treated with 500 nM AOH1996 overnight. PCNA in complex with chromatin-bound (CB) FLAG-RBP1 were analyzed by western blotting. FIG. 5C: Human SK-N-AS cells were treated with UV in the presence or absence of AOH1996 (AOH) or R9-caPep (caPep). Whole cell extracts were analyzed by western blotting. FIG. 5D: Cells exogenously expressing FLAG-tagged wildtype RPB1 or FLAG-tagged APIM-mutant RPB1 gene were fractioned. PCNA in complex with chromatin-bound (CB) FLAG-RBP1 were analyzed by western blotting. FIG. 5E: HEK293T cells were transiently transfected with a FLAG-tagged wildtype RPB1 (APIM WT) gene or mutant RPB1 gene (APIM mutant). The intracellular MCM7 and RBP1 (both the hypo-phosphorylated RNAPIIa and hyper-phosphorylated RNAPIIo forms) were analyzed by western blot after cells were treated by the indicated agents and/or UV.
Modulating PCNA interaction with transcription machinery.
Cell fractionation and immunoprecipitation. Cells were fractionated as previously described (Li et al., 2018). Briefly, intact nuclei isolated following osmotic lysis were homogenized using a 21 G needle. Chromatin was pelleted by centrifugation and incubated overnight at 4° C. with benzonase in two volumes of nuclease buffer (20 mM HEPES pH 7.5, 1.5 mM MgCl2, 1 mM EDTA, 150 mM KCl, 10% glycerol, 0.5 U μl-1 benzonase). The resulting supernatant was collected as the CB fraction. Alternatively, we sequentially incubated the chromatin pellet with RNase A and benzonase and collected the supernatants after each digestion as the CB:RNA+ and CB:RNA− fractions, respectively (Li et al., 2018).

As for `O=C(O)CC[C@@H](NC(=O)c1cccc2ccccc12)C(=O)Nc1ccccc1Oc1ccccc1` [AOH1160DE], the half-inhibitory concentration (IC50) in experiment [1] was over 10 µM.

`Cc1ccc(Sc2ccccc2NC(=O)[C@H](CCC(=O)O)NC(=O)c2cccc3ccccc23)cc1` [AOH1996SLE-4CH3, (S)-4-(1-naphthamido)-5-oxo-5-((2-(p-tolylthio)phenyl)amino) pentanoic acid]: the half-maximal inhibitory concentration (IC50) in experiment [1] is over 10 µM.

On to `O=C(CNC(=O)c1cccc2ccccc12)Nc1ccccc1Nc1ccccc1` [AOH1160NH], for which the half-maximal inhibitory concentration (IC50) in the experiment with HTC-116, in the experiment on OVCAR8 and in the experiment with RKO was over 10 µM throughout.

Turning to `O=C(CCNC(=O)c1cccc2ccccc12)Nc1ccccc1Oc1ccccc1` [AOH1160e, N-(3-oxo-3-((2-phenoxyphenyl)amino)propyl)-1-naphthamide], the half-maximal inhibitory concentration (IC50) in experiment [1] was over 10 µM.

Regarding `O=C(CNC(=O)c1cccc2ccccc12)Nc1ccccc1Oc1ccc(O)cc1` [AOH1160-4′-OH], the IC50 in the experiment with SK-N-AS is 0.156 µM.

As to `CC(C)[C@@H](NC(=O)c1cccc2ccccc12)C(=O)Nc1ccccc1Oc1ccccc1` [AOH1160DV, (R)—N-(3-methyl-1-oxo-1-((2-phenoxyphenyl)amino)butan-2-yl)-1-naphthamide], in experiment [1], the IC50 is over 10 µM.

With `NCCCC[C@@H](NC(=O)c1cccc2ccccc12)C(=O)Nc1ccccc1Oc1ccccc1` [AOH1160DK], the half-maximal inhibitory concentration (IC50) in experiment [1] was over 10 µM.

Turning to `O=C(CNC(=O)c1nccc2ccccc12)Nc1ccccc1Oc1ccncc1` [AOH1167], the concentration for half-maximal inhibition (IC50) in experiment [1] turned out to be 42 µM.

For the molecule `COc1cccc(Oc2ccccc2NC(=O)c2cccc3ccccc23)c1` [AOH1996t, N-(2-(3-methoxyphenoxy)phenyl)-1-naphthamide], in experiment [1], the half-inhibitory concentration (IC50) was over 10 µM.

As for `O=C(Nc1ccccc1Oc1ccccc1)c1cccc2ccccc12` [AOH1160t], in experiment [1], the half-maximal inhibitory concentration (IC50) is over 10 µM.

`Cc1ccc(Sc2ccccc2NC(=O)CNC(=O)c2cccc3ccccc23)cc1` [AOH1996S-4CH3, N-(2-oxo-2-((2-(p-tolylthio)phenyl)amino)ethyl)-1-naphthamide]: the IC50 in the experiment with HTC-116 was 0.345 µM; in the experiment on OVCAR8, 0.291 µM; in the experiment on RKO, 0.503 µM.

`NCCCC[C@H](NC(=O)c1cccc2ccccc12)C(=O)Nc1ccccc1Oc1ccccc1` [AOH1160LK]: the concentration for half-maximal inhibition (IC50) in experiment [1] was over 10 µM.

With `O=C(CNC(=O)c1cccc2ccccc12)Nc1ccccc1Sc1ccc(C(F)(F)F)cc1` [AOH1996S-4CF3, N-(2-oxo-2-((2-((4-(trifluoromethyl)phenyl)thio)phenyl)amino)ethyl)-1-naphthamide], the half-inhibitory concentration (IC50) in the experiment with HTC-116 was 4.6 µM; with OVCAR8 it was 3.4 µM; with RKO, 10 µM.

Take `COc1cccc(Oc2ccccc2NC(=O)[C@H](CCC(=O)O)NC(=O)c2cccc3ccccc23)c1` [AOH1996LE, (S)-4-(1-naphthamido)-5-((2-(3-methoxyphenoxy)phenyl)amino)-5-oxopentanoic acid]: the half-maximal inhibitory concentration (IC50) in experiment [1] was over 10 µM.

In the case of `O=C(CNC(=O)c1cccc2ccccc12)Nc1ccccc1S(=O)(=O)c1ccccc1` [AOH1160SO2, N-(2-oxo-2-((2-(phenylsulfonyl)phenyl)amino)ethyl)-1-naphthamide], in experiment [1], the IC50 is over 10 µM.

Consider “caPep: contains the L126-Y133 sequence of PCNA that overlaps APIM-interacting region of PCNA (LGIPEQEY; UniProt P12004 126-133, looked up, fragment) [reference compound]”, for which the “PCNA interaction with RPB1” value in experiment [2] (chromatin-bound) is given as “blocked PCNA interaction with RPB1”. The RPB1 levels entry in experiment [2] (whole cell extracts) was “increased RPB1 levels”.

As to `COc1cccc(Oc2ccccc2NC(=O)CNC(=O)CCc2cccc3ccccc23)c1` [AOH1996eeNph, N-(2-((2-(3-methoxyphenoxy)phenyl)amino)-2-oxoethyl)-3-(naphthalen-1-yl) propanamide], the 50% inhibitory concentration (IC50) in experiment [1] is over 10 µM.

Consider `O=C(CNC(=O)c1cccc2ccccc12)Nc1ccccc1Sc1cccc(C(F)(F)F)c1` [AOH1996S-3CF3, N-(2-oxo-2-((2-((3-(trifluoromethyl)phenyl)thio)phenyl)amino)ethyl)-1-naphthamide], for which the IC50 with HTC-116 stood at 4.6 µM; in the experiment with OVCAR8, 2.6 µM; in the experiment on RKO, 8 µM.

As for `COc1cccc(Oc2ccccc2NC(=O)CNC(=O)c2ccc(-c3ccccc3)cc2)c1` [AOH1996BiNph, N-(2-((2-(3-methoxyphenoxy)phenyl)amino)-2-oxoethyl)-[1,1′-biphenyl]-4-carboxamide], in experiment [1], the IC50 is over 10 µM.

Consider `O=C(CNC(=O)c1cccc2ccccc12)Nc1ccccc1C(=O)Nc1ccccc1` [AOH1160-2AB, N-(2-oxo-2-((2-(phenylcarbamoyl)phenyl)amino)ethyl)-1-naphthamide], for which, in experiment [1], the IC50 was over 10 µM.

Turning to `COc1cccc(Oc2ccccc2NC(=O)CNC(=O)Cc2cccc3ccccc23)c1` [AOH1996eNph, N-(2-(3-methoxyphenoxy)phenyl)-2-(2-(naphthalen-1-yl)acetamido) acetamide], the IC50 in experiment [1] was over 10 µM.

Usually IC50 stands for the concentration that inhibits the measured activity by half.
